The results in this text go back to patent US9856225B2, “Substituted phenazines as antimicrobial agents” (University of Florida Research Foundation, Incorporated, priority 2013, dated 2018).

Holding throughout (format): cell-based
Experiment [1] concerns Acinetobacter baumannii (ATCC 19606). Briefly: Planktonic growth (OD600) in biofilm inhibition assay. Particulars: for inhibition of growth at 100 µM: Acinetobacter baumannii, ATCC19606, 24 h, A. baumannii ATCC 19606, * = no growth inhibition at 200 μM, read-out: % Growth Inhibition at 100 μM. On the procedure: Each well was inoculated with ˜7×10^6 colony forming units per milliliter (corresponding to an OD600 of 0.01 prepared directly from an overnight culture). A lid was placed on the 96-well plate which was wrapped in suran wrap, placed in a humidifying chamber and incubated under static conditions at 37° C. for 24 hours. Following incubation, the media and planktonic bacteria were then removed from 96-well plates and the wells were then washed with water. The bacterial biofilms within the microtiter wells were stained with 200 μL of an aqueous 0.1% crystal violet solution that was allowed to stand for 10-20 minutes. The crystal violet stain was then removed, the wells were rinsed with water and dried. The crystal violet stain that remained on the inside of the wells (i.e., stained bacterial biofilm) on the inside of the wells was solubilized by the addition of 200 μL ethanol and absorbance was read at OD540 using a spectrophotometer. […] Single data points for all compounds and DMSO controls were tested in two replicate rows in 96-well plates and corresponding absorbance readings were averaged for the quantification of planktonic growth and biofilm formation. Reported percent biofilm inhibition was determined by the comparison of compound treated wells (the average of the two replicate wells) versus vehicle control wells without compound following background subtraction (i.e., an empty, untreated well) and reported from 2 to 4 independent overnight cultures. DMSO was serially diluted at the same concentration as test compounds with a top concentration of 1% v/v.
(§1) The bromophenazines were also evaluated against the Gram-negative bacterium Acinetobacter baumannii in order to identify biofilm modulating small molecules against this emerging pathogen. Acinetobacter baumannii is notorious for its ability to persist as bacterial biofilms on hospital surfaces, giving rise to many multidrug-resistant nosocomial infections. Clinical isolates of A. baumannii have been identified that are resistant to every class of antibiotic clinically used. The bromophenazines were evaluated against Acinetobacter baumannii ATCC 19606 in biofilm inhibition assays. Bromophenazines were allowed to incubate in 96-well plates with Acinetobacter baumannii (˜7×10^6 CFUmL^−1 by adjusting an overnight culture to an OD600˜0.01) for 24 hours at 37° C. using Mueller-Hinton broth followed by spectrophometer readings of each plate to evaluate planktonic growth (OD600) and biofilm formation (OD540 after crystal violet stain of biofilms inside microtiter wells). […] This biofilm inhibition with activation of planktonic growth activity was dose-dependent with bromophenazine 17a (see FIG. 20).

Experiment [2] has as its system Acinetobacter baumannii (ATCC 19606) biofilm. Briefly: Biofilm inhibition, Mueller-Hinton broth, crystal violet. The conditions noted are these: A. baumannii ATCC 19606; for inhibition at 100 µM: Acinetobacter baumannii, ATCC19606, read-out: % Biofilm Inhibition at 100 μM. On the procedure: Biofilm Inhibition Protocol for A. baumannii (ATCC 19606): In a 96-well plate, ten two-fold serial dilutions of each compound tested were made from the highest concentration tested (100 μM) in a final volume of 100 μL in Mueller-Hinton broth (one column served as a blank). Each well was inoculated with ˜7×10^6 colony forming units per milliliter (corresponding to an OD600 of 0.01 prepared directly from an overnight culture). A lid was placed on the 96-well plate which was wrapped in suran wrap, placed in a humidifying chamber and incubated under static conditions at 37° C. for 24 hours. Following incubation, the media and planktonic bacteria were then removed from 96-well plates and the wells were then washed with water. The bacterial biofilms within the microtiter wells were stained with 200 μL of an aqueous 0.1% crystal violet solution that was allowed to stand for 10-20 minutes. The crystal violet stain was then removed, the wells were rinsed with water and dried. The crystal violet stain that remained on the inside of the wells (i.e., stained bacterial biofilm) on the inside of the wells was solubilized by the addition of 200 μL ethanol and absorbance was read at OD540 using a spectrophotometer. NOTE: The concentration range tested for each compound was 0.2-100 μM. Single data points for all compounds and DMSO controls were tested in two replicate rows in 96-well plates and corresponding absorbance readings were averaged for the quantification of planktonic growth and biofilm formation. Reported percent biofilm inhibition was determined by the comparison of compound treated wells (the average of the two replicate wells) versus vehicle control wells without compound following background subtraction (i.e., an empty, untreated well) and reported from 2 to 4 independent overnight cultures. DMSO was serially diluted at the same concentration as test compounds with a top concentration of 1% v/v.
as §1

The test system of experiment [3] is Acinetobacter baumannii (ATCC 19606) pre-formed biofilm. In words: Biofilm dispersion, crystal violet. The conditions noted are these: for percent biofilm dispersion at 100 µM: Acinetobacter baumannii, ATCC19606, 24 h. On the procedure:
Biofilm Dispersion Protocol for A. baumannii (ATCC 19606): To a 96-well plate was added a volume of 100 μL Mueller-Hinton broth that was inoculated with ˜7×10^6 colony forming units per milliliter (corresponding to an OD600 of 0.01 prepared directly from an overnight culture). Two columns of wells were left blank to serve as our background wells. A lid was placed on the 96-well plate which was wrapped in suran wrap, placed in a humidifying chamber and incubated under static conditions at room temperature for 24 hours to establish bacterial biofilms. Following this initial incubation at room temperature, the media and planktonic bacteria were then removed from 96-well plates and the wells were then washed with water. Fresh medium was then added and series of ten two-fold serial dilutions of text compound were made in the 96-well plate using a multichannel pipette. A lid was then placed on 96-well plate which was then wrapped in suran wrap, placed in a humidifying chamber and incubated under static conditions at 37° C. for 24 hours. Following this second incubation to test compounds against pre-formed biofilms, the media and planktonic bacteria were again removed from 96-well plates and the wells were then washed with water. The bacterial biofilms within the microtiter wells were stained with 200 μL of an aqueous 0.1% crystal violet solution that was allowed to stand for 10-20 minutes. The crystal violet stain was then removed, the wells were rinsed with water and dried. The crystal violet stain that remained on the inside of the wells (i.e., stained bacterial biofilm) on the inside of the wells was solubilized by the addition of 200 μL ethanol and absorbance was read at OD540 using a spectrophotometer. Note: The concentration range tested for each compound was 0.2-100 μM. Single data points for all compounds and DMSO controls were tested in two replicate rows in 96-well plates and corresponding absorbance readings were averaged for the quantification of remaining bacterial biofilms. Reported percent dispersion of biofilms was determined by the comparison of compound treated wells (the average of the two replicate wells) versus vehicle control wells without compound following background subtraction (i.e., an empty, untreated well) and reported from two independent experiments. DMSO was serially diluted at the same concentration as test compounds with a top concentration of 1% v/v.

Where [4] appears, read: A. baumannii ATCC 19606, read-out: % Biofilm Dispersion at 100 μM.
[5] abbreviates: read-out: % Biofilm Dispersion at 100 μM, A. baumannii ATCC 19606.

Like-named read-outs stand apart in the source and are kept apart here.

A word on the inhibition: it is the share of the control response that was lost under treatment. As for `CCC(=O)Oc1c(Br)cc(Br)c2nc3ccccc3nc12` [Compound 4a], the inhibition of growth at 100 µM in experiment [1] (100 μM) amounted to 82 ± 1%. For the same molecule, in experiment [2], the Phenotype result was “antibacterial” and the inhibition at 100 µM is 99 ± 1%. Moreover, in experiment [3] (A. baumannii ATCC 19606), the “Biofilm Dispersal Agent?” value was “Yes”. For the same molecule, in experiment [3] (setting [4]), the percent biofilm dispersion at 100 µM lay within 53 to 57%.

With `O=C(CCCC(=O)Oc1c(Br)cc(Br)c2nc3ccccc3nc12)Oc1c(Br)cc(Br)c2nc3ccccc3nc12` [Compound 5a], the inhibition of growth at 100 µM in experiment [1] (100 μM) is -1 ± 6%. The inhibition at 100 µM in experiment [2] amounted to 59 ± 11%. The “Biofilm Dispersal Agent?” value in experiment [3] (A. baumannii ATCC 19606) is given as “Yes”. Besides, in experiment [3] (setting [4]), the percent biofilm dispersion at 100 µM was 30 ± 3%.

Consider `O=C(OCCc1ccccc1)Oc1c(Br)cc(Br)c2nc3ccccc3nc12` [Compound 8a], for which the inhibition of growth at 100 µM in experiment [1] (100 μM) turned out to be 76 ± 10%. Also, in experiment [2], the Phenotype entry is given as “antibacterial” and the inhibition at 100 µM was determined as 97 ± 2%. For the same molecule, in experiment [3] (A. baumannii ATCC 19606), the “Biofilm Dispersal Agent?” value is “Yes”. Besides, in experiment [3] (setting [4]), the percent biofilm dispersion at 100 µM amounted to 32 ± 4%.

On to `Oc1c(Br)cc(Br)c2nc3ccccc3nc12` [Compound 11, 2,4-Dibromophenazin-1-ol], for which, in experiment [1] (100 μM), the inhibition of growth at 100 µM came out at 86 ± 3%. Moreover, in experiment [2], the Phenotype result is listed as “antibacterial” and the inhibition at 100 µM was determined as 98 ± 1%. For the same molecule, the “Biofilm Dispersal Agent?” value in experiment [3] (A. baumannii ATCC 19606) was “Yes”. Moreover, in experiment [3] (setting [5]), the percent biofilm dispersion at 100 µM lay within 53 to 57%.

With `O=C(Oc1c(Br)cc(Br)c2nc3ccccc3nc12)c1ccc(Br)cc1` [Compound 12a], the inhibition of growth at 100 µM in experiment [1] (100 μM) is 3 ± 3%. Also, in experiment [2], the inhibition at 100 µM worked out at 34 ± 4%. Moreover, the “Biofilm Dispersal Agent?” value in experiment [3] (A. baumannii ATCC 19606) is “No”. Also, the percent biofilm dispersion at 100 µM in experiment [3] (setting [4]) was 5 ± 12%.

In the case of `O=C(Oc1c(Br)cc(Br)c2nc3ccccc3nc12)c1ccc(Cl)cc1` [Compound 14a], in experiment [1] (100 μM), the inhibition of growth at 100 µM worked out at 2 ± 3%. For the same molecule, the inhibition at 100 µM in experiment [2] was determined as 25 ± 3%. Further, the “Biofilm Dispersal Agent?” value in experiment [3] (A. baumannii ATCC 19606) was “No”. Further, the percent biofilm dispersion at 100 µM in experiment [3] (setting [4]) worked out at 7 ± 2%.

For `O=C(Oc1c(Br)cc(Br)c2nc3ccccc3nc12)c1cccc([N+](=O)[O-])c1` [Compound 15a], the inhibition of growth at 100 µM in experiment [1] (100 μM) came to 3 ± 4%. Further, the inhibition at 100 µM in experiment [2] was 25 ± 6%. The “Biofilm Dispersal Agent?” value in experiment [3] (A. baumannii ATCC 19606) was “Yes”. The percent biofilm dispersion at 100 µM in experiment [3] (setting [4]) worked out at 36 ± 2%.

In the case of `Cc1ccc(C(=O)Oc2c(Br)cc(Br)c3nc4ccccc4nc23)cc1` [Compound 18a], the inhibition of growth at 100 µM in experiment [1] (100 μM) is -6 ± 6%. Moreover, in experiment [2], the Phenotype entry was “inactive” and the inhibition at 100 µM worked out at 1 ± 5%. Besides, in experiment [3] (A. baumannii ATCC 19606), the “Biofilm Dispersal Agent?” value was “No”. In experiment [3] (setting [4]), the percent biofilm dispersion at 100 µM is -1 ± 6%.

For `CC(=O)Oc1c(Br)cc(Br)c2nc3ccccc3nc12` [Compound 21, 2,4-Dibromophenazin-1-yl acetate], in experiment [1] (100 μM), the inhibition of growth at 100 µM was found to be 83 ± 2%. Further, in experiment [2], the Phenotype result is on record as “antibacterial” and the inhibition at 100 µM is 98 ± 1%. Moreover, in experiment [3] (A. baumannii ATCC 19606), the “Biofilm Dispersal Agent?” value was “Yes”. In addition, the percent biofilm dispersion at 100 µM in experiment [3] (setting [5]) fell in the range of 53 to 57%.

Consider `O=C(Oc1c(Br)cc(Br)c2nc3ccccc3nc12)c1ccccc1` [Compound 23, 2,4-Dibromophenazin-1-yl benzoate], for which, in experiment [1] (100 μM, OD600), the “increase in planktonic growth” value is listed as around 15%. Further, in experiment [1] (200 μM), the “planktonic growth inhibition at 200 μM” value is “did not inhibit planktonic growth”. In addition, the inhibition of growth at 100 µM in experiment [1] (100 μM) was -13 ± 7%. The inhibition at 100 µM in experiment [2] was 51 ± 6%. For the same molecule, in experiment [3] (A. baumannii ATCC 19606), the “Biofilm Dispersal Agent?” value was “No”. The percent biofilm dispersion at 100 µM in experiment [3] (setting [5]) is -1 ± 6%.

Consider `O=C(Oc1c(Br)cc(Br)c2nc3ccccc3nc12)c1ccco1` [Compound 23a], for which the inhibition of growth at 100 µM in experiment [1] (100 μM) came to 80 ± 1%. Moreover, in experiment [2], the Phenotype entry was “antibacterial” and the inhibition at 100 µM amounted to 86 ± 12%. In experiment [3] (A. baumannii ATCC 19606), the “Biofilm Dispersal Agent?” value is recorded as “No”. For the same molecule, in experiment [3] (setting [4]), the percent biofilm dispersion at 100 µM worked out at 17 ± 14%.

Consider `O=C(OCC(Cl)(Cl)Cl)Oc1c(Br)cc(Br)c2nc3ccccc3nc12` [Compound 27a], for which the inhibition of growth at 100 µM in experiment [1] (100 μM) turned out to be 68 ± 4%. In experiment [2], the Phenotype entry is “antibacterial” and the inhibition at 100 µM stood at 99 ± 1%. In addition, in experiment [3] (A. baumannii ATCC 19606), the “Biofilm Dispersal Agent?” value is given as “Yes”. Also, in experiment [3] (setting [4]), the percent biofilm dispersion at 100 µM was 38 ± 6%.

As for `COC(=O)Oc1c(Br)cc(Br)c2nc3ccccc3nc12` [Compound 28a], the inhibition of growth at 100 µM in experiment [1] (100 μM) is 92 ± 1%. Further, in experiment [2], the Phenotype result is on record as “antibacterial” and the inhibition at 100 µM was 99 ± 1%. Also, the “Biofilm Dispersal Agent?” value in experiment [3] (A. baumannii ATCC 19606) is given as “Yes”. For the same molecule, in experiment [3] (setting [4]), the percent biofilm dispersion at 100 µM is 53 to 57%.
